# Data as given in patent publication US6989375B2, “Enhanced expression of transgenes” (priority 1996, dated 2006).
# System: H1299 cells
# Assay: β-gal expression by X-gal staining after Ad/CMV/β-gal infection of agent-treated cells
# Format: cell-based, human
# Conditions: drugs at 0.062 μg/ml or irradiated with 8 Greys; stained 24 hrs after infection
# Experimental: Gene Delivery Protocol: In vitro gene delivery was performed by incubating cells in six-well plates (Falcon Plastics, Lincoln Park, N.J.) for two hours with Adv/CMV/β-gal in appropriate medium supplemented with 2% FCS. The multiplicity of infection (MOI: number of viral particles per target cell) was based on cell counts of untreated wells. Fresh, complete medium with the appropriate concentration of FCS was then added to the wells at the end of the infection period and cells were then incubated for 20 hours at 37° C., 5% CO2. After washing the cells with ice cold PBS, the cells were fixed with ice-cold 1.25% glutaraldehyde and stained with X-gal (5-bromo-4-chloro-3-indolyl-β-d-galactoside; Gibco BRL) as previously described (MacGregor et al., 1987). The transduction efficiency by Adv/CMV/β-gal was determined by the percentage of positive stained cells (blue) for β-galactosidase activity (1000 cells counted per well).
# Time Course and Dose Response: To determine the time course of enhancement, H1299 and H460 cells were seeded in 6-well plates (2×10^5 cells/2 mls/well). After an overnight incubation period (37° C., 5% CO2), the initial medium was replaced with freshly prepared media (2 ml) containing 0.062 μg/ml CDDP (Sigma Chemicals, St. Louis, Mo.) (CDDP was prepared fresh by dissolving in distilled water) and the cells were then incubated for 24 hours at 37° C., with 5% CO2. CDDP-treated cells were then washed twice with PBS and subsequently infected with Ad/CMV/β-gal (MOI=1 for H1299 and MOI=5 for H460) on days 0, 1, 2, 3, 4, 5 or 6 following CDDP removal, to determine the time point at which maximal enhancement of expression was occurring. To establish the dose of CDDP needed to produce maximum enhancement, the cells were treated with different concentrations of CDDP (serial, 1:4 dilutions, ranging from 4 μg/ml to 0.0002 μg/ml, 5 ml per 60 mm dish) for 24 hours and subsequently incubated with Ad/CMV/β-gal 48 hours after removal of CDDP. To study if exposure of malignant cells to different classes of antineoplastic agents would lead to a similar elevation of gene expression, H1299 cells were treated with vincristine (Eli Lilly and Co, Indianapolis, Ind.), methotrexate (Lederle Pharmaceuticals, Pearl River, N.Y.), 5-fluorouracil (SoloPak Laboratories, Elk Grove Village, Ill.), epotoside (Bristol Laboratories, Princeton, N.J.) and transplatin (the isomer of CDDP that has no anticancer activity, Sigma Chemical, St. Louis, Mo.) in the similar fashion as CDDP treatment and then infected with Ad/CMV/β-gal 48 hours after removal of drug-containing media. H1299 cells were treated with 2, 4, 8, or 16 Grey (Gy) of ionizing irradiation and then similarly infected 72 hours after irradiation. Untreated cells that were similarly infected, served as controls.
row,Structure (SMILES),Enhancement of β-gal expression (FIG. 3)
1,"COc1cc([C@@H]2c3cc4c(cc3[C@@H](O[C@@H]3O[C@@H]5CO[C@@H](C)O[C@H]5[C@H](O)[C@H]3O)[C@H]3COC(=O)[C@H]23)OCO4)cc(OC)c1O [VP-16, etoposide]",Enhancement of β-gal expression was observed

# Same assay, conditions: wide range of drug concentrations, 24 h; infected with Ad/CMV/β-gal 48 hours after drug removal
row,Structure (SMILES),Enhancement of β-gal gene expression after treatment with antineoplastic agent
1,O=c1[nH]cc(F)c(=O)[nH]1 [5-fluorouracil],did not result in enhanced gene expression
2,"COc1cc([C@@H]2c3cc4c(cc3[C@@H](O[C@@H]3O[C@@H]5CO[C@@H](C)O[C@H]5[C@H](O)[C@H]3O)[C@H]3COC(=O)[C@H]23)OCO4)cc(OC)c1O [VP-16, etoposide]",enhanced gene expression
3,CN(Cc1cnc2nc(N)nc(N)c2n1)c1ccc(C(=O)N[C@@H](CCC(=O)O)C(=O)O)cc1 [methotrexate],did not result in enhanced gene expression
4,N.N.[Cl][Pt+2][Cl] [transplatinum],did not result in enhanced gene expression
5,CC[C@]1(O)C[C@H]2CN(CCc3c([nH]c4ccccc34)[C@@](C(=O)OC)(c3cc4c(cc3OC)N(C=O)[C@H]3[C@@](O)(C(=O)OC)[C@H](OC(C)=O)[C@]5(CC)C=CCN6CC[C@]43[C@@H]65)C2)C1 [vincristine],did not result in enhanced gene expression
